Measured values taken from patent publication US4698344A, “1-Heteroaryl-4-aryl-pyrazolin-5-ones for use as medicaments” (priority 1984, dated 1987).
Like-named read-outs stand apart in the source and are kept apart here.

Experiments:
cyclooxygenase [1] = target: T1, cyclooxygenase (Rattus norvegicus, UniProt Q63921); experiment: Cyclooxygenase activity in homogenates of RBL-1 cells; format: biochemical; conditions: concentration 0.5-1 μg/ml; negative = inhibition
T1 construct: homogenates of RBL-1 cells; endogenous in cells; host or cells: RBL-1 (rat basophilic leukaemia) cells, homogenate
T1 sequence (Q63921 27-602): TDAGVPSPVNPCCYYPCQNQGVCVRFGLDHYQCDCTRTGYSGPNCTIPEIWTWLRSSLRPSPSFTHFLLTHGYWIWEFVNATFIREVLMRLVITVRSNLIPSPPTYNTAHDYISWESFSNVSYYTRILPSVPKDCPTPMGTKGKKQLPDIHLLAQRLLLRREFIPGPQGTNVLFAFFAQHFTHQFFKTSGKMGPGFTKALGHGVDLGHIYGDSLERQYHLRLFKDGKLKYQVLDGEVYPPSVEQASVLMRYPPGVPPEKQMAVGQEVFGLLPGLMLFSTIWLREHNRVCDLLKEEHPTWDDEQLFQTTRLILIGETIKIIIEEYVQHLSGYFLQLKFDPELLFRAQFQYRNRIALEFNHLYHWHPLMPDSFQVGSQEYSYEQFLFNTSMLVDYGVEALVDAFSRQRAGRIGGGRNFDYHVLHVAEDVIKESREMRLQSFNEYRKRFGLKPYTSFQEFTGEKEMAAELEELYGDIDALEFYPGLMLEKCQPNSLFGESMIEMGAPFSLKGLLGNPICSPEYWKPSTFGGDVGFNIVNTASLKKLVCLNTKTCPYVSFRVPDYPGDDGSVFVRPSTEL
From the text: (§1) Basophilic leukaemia cells from rats (RBL-1) synthesize both lipoxygenase and cyclooxygenase products from ^14 C-arachidonic acid with which they are supplied. […] The products formed were separated by thin layer chromatography and quantified in a scanner.

lipoxygenase = target: T2, lipoxygenase (Rattus norvegicus, UniProt P12527); experiment: Lipoxygenase activity in homogenates of RBL-1 cells; format: biochemical; conditions: concentration 0.5-1 μg/ml; negative = inhibition
T2 construct: homogenates of RBL-1 cells; endogenous in cells; host or cells: RBL-1 (rat basophilic leukaemia) cells, homogenate
T2 sequence (P12527 1-673): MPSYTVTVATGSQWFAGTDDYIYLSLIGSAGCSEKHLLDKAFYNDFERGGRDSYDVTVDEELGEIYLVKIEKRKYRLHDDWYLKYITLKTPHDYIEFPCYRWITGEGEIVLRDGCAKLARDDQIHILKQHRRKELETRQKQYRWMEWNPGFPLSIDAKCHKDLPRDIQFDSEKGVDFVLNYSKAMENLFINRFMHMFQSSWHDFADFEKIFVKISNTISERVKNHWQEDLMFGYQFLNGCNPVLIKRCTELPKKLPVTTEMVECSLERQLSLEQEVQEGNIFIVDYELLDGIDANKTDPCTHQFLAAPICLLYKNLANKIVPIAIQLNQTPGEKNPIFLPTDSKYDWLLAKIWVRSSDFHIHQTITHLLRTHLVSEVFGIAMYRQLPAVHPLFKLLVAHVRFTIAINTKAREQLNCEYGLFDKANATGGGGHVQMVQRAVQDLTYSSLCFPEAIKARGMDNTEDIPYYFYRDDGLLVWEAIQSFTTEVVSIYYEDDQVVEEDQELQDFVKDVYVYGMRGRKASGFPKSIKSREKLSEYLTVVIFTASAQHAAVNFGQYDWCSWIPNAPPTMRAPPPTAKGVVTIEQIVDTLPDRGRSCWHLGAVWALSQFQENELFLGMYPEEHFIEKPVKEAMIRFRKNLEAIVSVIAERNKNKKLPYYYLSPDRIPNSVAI
From the text: as §1

[2] = test system: carrageenan-induced oedema of the rat paw; experiment: Carrageenan-induced oedema of the rat paw; format: in vivo; conditions: for % inhibition of the carrageenan oedema: oral, 2.5 mg/kg, rats, 5 hours after oedema provocation
Method: The antiinflammatory action of the test substances following oral administration was determined with the aid of carrageenan-induced oedema of the rat paw.
The experiments were carried out with male rats, strain: Bor:WLSW (SPF-Cpb); weight 150 to 220 g. One hour before inducing the oedema (0.1 ml of carrageenan suspension/animal, subplantar injection), the substance to be tested was administered to the animals as a suspension in tragacanth with the aid of a stomach tube; as a control, a second group of animals was treated with tragacanth without the substance.
The paw volumes were measured by the method of F. Kemper and G. Ameln Z. exp.

[3] = test system: release of leukotrienes (SRS-A); experiment: Passive peritoneal anaphylaxis (rats); format: in vivo, rat; conditions: 100 mg/kg perorally
Method: The effect of substances on the release of mediators, in particular the release of leukotrienes, is recorded with this in vivo method. […] Histamine is not released during this, so that the lipoxygenase-inhibiting action of test substances can be investigated selectively.

5-lipoxygenase = target: T3, 5-lipoxygenase (Homo sapiens, UniProt P09917); experiment: Lipoxygenase activity (LTB4 synthesis) in human PMN leukocytes stimulated with A 23187; format: cell-based; conditions: for inhibition at 10 µg/mL: read-out: Inhibition of LTB4 synthesis in human PMN's; for Effective threshold concentration, inhibition of LTB4 synthesis: human PMN's
T3 construct: endogenous in cells; host or cells: human polymorphonuclear leukocytes from heparinized whole blood
T3 sequence (P09917 1-674): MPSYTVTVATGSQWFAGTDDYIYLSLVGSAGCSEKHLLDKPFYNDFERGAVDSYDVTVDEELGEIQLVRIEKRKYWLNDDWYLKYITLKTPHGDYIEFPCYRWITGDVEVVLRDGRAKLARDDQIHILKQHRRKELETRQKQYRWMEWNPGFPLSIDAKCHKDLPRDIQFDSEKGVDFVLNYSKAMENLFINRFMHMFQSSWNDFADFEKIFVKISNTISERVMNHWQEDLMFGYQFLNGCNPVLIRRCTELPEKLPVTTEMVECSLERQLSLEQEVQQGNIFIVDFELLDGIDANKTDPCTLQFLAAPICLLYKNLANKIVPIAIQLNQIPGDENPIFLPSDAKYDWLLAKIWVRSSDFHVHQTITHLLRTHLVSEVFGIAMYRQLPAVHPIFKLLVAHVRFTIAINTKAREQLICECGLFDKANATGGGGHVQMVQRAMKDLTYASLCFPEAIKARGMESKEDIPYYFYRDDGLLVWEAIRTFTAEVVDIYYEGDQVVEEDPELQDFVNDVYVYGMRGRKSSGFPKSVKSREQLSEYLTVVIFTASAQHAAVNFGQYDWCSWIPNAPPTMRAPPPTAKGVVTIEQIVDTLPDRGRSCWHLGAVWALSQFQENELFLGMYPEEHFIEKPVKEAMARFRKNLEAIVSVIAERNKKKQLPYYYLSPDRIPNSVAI
Method: The polymorphonuclear leukocytes of humans metabolize arachidonic acid to give 5-hydroxy-5,8,11,14-eicosatetraenoic acid (5-HETE) and leukotriene B4 (5S, 12R-dihydroxy-6-cis, 8,10-trans-14ciseicosatetraenoic acid). Inhibition of the release of 5-HETE and leukotriene B4 from leukocytes is a measure of the lipoxygenase-inhibiting effect of the compounds according to the invention.
After 15 minutes, the lipoxygenase products were extracted from the acidified incubation medium and separated by means of HPLC.

12-lipoxygenase = target: T4, 12-lipoxygenase (Homo sapiens, UniProt P18054); experiment: Arachidonic acid metabolism in human platelets: 12-lipoxygenase activity; format: cell-based
T4 construct: washed human platelets; endogenous in cells; host or cells: washed human platelets
T4 sequence (P18054 1-663): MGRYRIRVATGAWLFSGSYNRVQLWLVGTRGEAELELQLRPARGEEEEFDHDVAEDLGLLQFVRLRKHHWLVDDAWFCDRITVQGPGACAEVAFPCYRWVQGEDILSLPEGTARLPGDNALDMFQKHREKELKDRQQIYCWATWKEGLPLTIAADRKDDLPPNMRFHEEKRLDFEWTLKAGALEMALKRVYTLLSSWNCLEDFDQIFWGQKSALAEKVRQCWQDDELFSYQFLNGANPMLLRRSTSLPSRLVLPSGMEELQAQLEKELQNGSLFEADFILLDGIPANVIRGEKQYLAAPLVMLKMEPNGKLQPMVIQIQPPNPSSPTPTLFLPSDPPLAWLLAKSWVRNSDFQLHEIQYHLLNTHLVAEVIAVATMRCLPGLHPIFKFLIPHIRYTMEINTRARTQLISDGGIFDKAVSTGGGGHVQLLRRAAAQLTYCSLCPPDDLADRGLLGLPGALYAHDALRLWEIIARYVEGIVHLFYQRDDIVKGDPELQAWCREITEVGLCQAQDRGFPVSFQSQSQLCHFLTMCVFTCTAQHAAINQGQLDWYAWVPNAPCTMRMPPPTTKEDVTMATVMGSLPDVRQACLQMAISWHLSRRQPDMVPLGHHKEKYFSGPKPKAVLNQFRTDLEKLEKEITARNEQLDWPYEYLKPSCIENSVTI
Method: (§2) The metabolism of radioactively labelled arachidonic acid on washed human platelets is utilised in this test method. In this in vitro test, the radioactively labelled metabolites are extracted from the reaction mixture and separated by thin layer chromatography. The autoradiogram is evaluated with a thin layer scanner. Under these test conditions, the labelled metabolites are separated from the unreacted arachidonic acid and can then be evaluated quantitatively.

cyclooxygenase [4] = target: T5, cyclooxygenase (Homo sapiens, UniProt P23219); experiment: Arachidonic acid metabolism in human platelets: cyclooxygenase activity; format: cell-based
T5 construct: washed human platelets; endogenous in cells; host or cells: washed human platelets
Method: as §2

[5] = administered systemically (for example orally); cited from earlier work
cyclooxygenase [6] = conditions: background statement; cited from earlier work

T5 sequence (P23219 24-599): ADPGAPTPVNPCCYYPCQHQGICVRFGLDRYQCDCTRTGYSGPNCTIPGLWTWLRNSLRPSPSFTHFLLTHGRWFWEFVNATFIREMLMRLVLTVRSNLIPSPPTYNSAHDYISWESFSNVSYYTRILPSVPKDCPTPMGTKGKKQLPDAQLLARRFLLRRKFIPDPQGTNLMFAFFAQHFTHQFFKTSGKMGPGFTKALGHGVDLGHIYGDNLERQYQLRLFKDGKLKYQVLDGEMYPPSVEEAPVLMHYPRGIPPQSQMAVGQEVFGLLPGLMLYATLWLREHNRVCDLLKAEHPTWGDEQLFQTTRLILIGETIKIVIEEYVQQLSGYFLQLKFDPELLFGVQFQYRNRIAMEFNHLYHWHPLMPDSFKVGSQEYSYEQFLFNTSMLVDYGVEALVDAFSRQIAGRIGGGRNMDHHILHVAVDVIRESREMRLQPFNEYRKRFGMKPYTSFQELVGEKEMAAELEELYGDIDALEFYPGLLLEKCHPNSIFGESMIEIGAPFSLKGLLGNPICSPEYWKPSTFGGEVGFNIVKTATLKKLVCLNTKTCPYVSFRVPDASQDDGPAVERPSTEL

Action on cyclooxygenase (CO): Effect (cyclooxygenase [1]) | Action on lipoxygenase (LO): Effect (lipoxygenase) [%] | SMILES | % inhibition of the carrageenan oedema [2] [%] | further results
-11% | -71 | COc1ccc(-c2c[nH]n(-c3ncccn3)c2=O)cc1 [Example 113] |  | 
 |  | Cc1[nH]n(-c2ccccn2)c(=O)c1-c1ccccc1 [Example 49] | 16 | 
-2% | -34 | Cc1ccccc1-c1c[nH]n(-c2ccccn2)c1=O [Example 24] |  | 
+23% | -46 | O=c1c(-c2ccccc2F)c[nH]n1-c1ncccn1 [Example 104] |  | 
 |  | O=c1c(-c2cccc(C(F)(F)F)c2)c[nH]n1-c1ccccn1 [Example 27] |  | % inhibition, passive peritoneal anaphylaxis [3]: 47%
+3% | -73 | O=c1c(-c2ccccc2F)c[nH]n1-c1ccccn1 [Example 8] |  | inhibition at 10 µg/mL (5-lipoxygenase; at 10 μg/ml): 71%; Effective threshold concentration, inhibition of LTB4 synthesis (5-lipoxygenase): 1 to 10 µg/mL; Inhibition (threshold concentration), 12-lipoxygenase (12-lipoxygenase): 1 to 10 µg/mL; Inhibition (threshold concentration), cyclooxygenase (cyclooxygenase [4]): 1 to 10 µg/mL
 |  | O=c1c(-c2ccccc2)c[nH]n1-c1ccc([N+](=O)[O-])cn1 [Example 69] | 34 | 
 |  | NC1=NN(c2cccc(C(F)(F)F)c2)CC1 [BW 755C, 3-amino-1-(3-trifluoromethylphenyl)-pyrazoline] |  | toxic side effects (in words) [5]: toxic side effects
+5% | -58 | O=c1c(-c2ccc(C(F)(F)F)cc2)c[nH]n1-c1ccccn1 [Example 28] | 21 | 
 |  | CCCCCC#CCC#CCC#CCC#CCCCC(=O)O [5,8,11,14-eicosatetraynoic acid] |  | cyclooxygenase activity / potency of known lipoxygenase inhibitors (in words) (cyclooxygenase [6]): either simultaneously active as cyclooxygenase inhibitors or active only at very high concentrations
 | -42 | O=c1c(-c2ccccc2)c[nH]n1-c1ncccn1 [Example 103, 1-pyrimid-2-yl-4-phenyl-pyrazolin-5-one] |  | 
 |  | COc1ccc(-c2c[nH]n(-c3ccccn3)c2=O)cc1 [Example 18] | 22 | 
 |  | O=c1c(-c2ccccc2)c[nH]n1-c1ncc(Cl)cn1 [Example 130] | 38 | 
 |  | O=C1CCN(c2ccccc2)N1 [phenidone] |  | cyclooxygenase activity / potency of known lipoxygenase inhibitors (in words) (cyclooxygenase [6]): either simultaneously active as cyclooxygenase inhibitors or active only at very high concentrations
 |  | Cc1cccc(-c2c[nH]n(-c3ccccn3)c2=O)c1 [Example 25] |  | % inhibition, passive peritoneal anaphylaxis [3]: 64%
-17% | -66 | COc1ccccc1-c1c[nH]n(-c2ccc(Cl)cn2)c1=O [Example 58] |  | 
 |  | CC(Cc1ccc(O)c(O)c1)C(C)Cc1ccc(O)c(O)c1 (stereo not drawn) [nordihydroguaretic acid] |  | cyclooxygenase activity / potency of known lipoxygenase inhibitors (in words) (cyclooxygenase [6]): either simultaneously active as cyclooxygenase inhibitors or active only at very high concentrations
 |  | O=c1c(-c2ccc(C(F)(F)F)cc2)c[nH]n1-c1ncc(Cl)cn1 [Example 135] | 46 | 
 |  | Cc1[nH]n(-c2ccc(Cl)cn2)c(=O)c1-c1ccccc1 [Example 63] |  | inhibition at 10 µg/mL (5-lipoxygenase; at 10 μg/ml): 100%; Effective threshold concentration, inhibition of LTB4 synthesis (5-lipoxygenase): 1 to 10 µg/mL; Inhibition (threshold concentration), 12-lipoxygenase (12-lipoxygenase): 1 to 10 µg/mL; Inhibition (threshold concentration), cyclooxygenase (cyclooxygenase [4]): 1 to 10 µg/mL
-19% | -76 | O=c1c(-c2ccc(Cl)c(Cl)c2)c[nH]n1-c1ccccn1 [Example 16] |  | inhibition at 10 µg/mL (5-lipoxygenase; at 10 μg/ml): 85%; Effective threshold concentration, inhibition of LTB4 synthesis (5-lipoxygenase): 1 to 10 µg/mL; Inhibition (threshold concentration), 12-lipoxygenase (12-lipoxygenase): 1 to 10 µg/mL; Inhibition (threshold concentration), cyclooxygenase (cyclooxygenase [4]): 1 to 10 µg/mL

SMILES | Action on cyclooxygenase (CO): Effect (cyclooxygenase [1]) | Action on lipoxygenase (LO): Effect (lipoxygenase) [%] | % inhibition of the carrageenan oedema [2] [%] | further results
O=c1c(-c2ccccc2)c[nH]n1-c1ccccn1 [Example 7, 1-pyrid-2-yl-4-phenyl-pyrazolin-5-one] | +28% | -66 | 44 | inhibition at 10 µg/mL (5-lipoxygenase): 92%; % inhibition, passive peritoneal anaphylaxis [3]: 65%; ED50 ([2]; Rattus norvegicus, po, 5 h, read-out: ED50 of oedema inhibition): 9.1 mg/kg
